In article PMC12722920, “Pharmacokinetics and pharmacodynamics of cannabigerol (CBG) in the C57BL/6Crl mouse” (Frontiers in Pharmacology, 2025):
Read-outs that look alike come from different tables or passages of the source.

What was measured:
[1] = THC 10 mg/kg i.v.; ref Zagzoog et al., 2024; cited from earlier work
C57BL/6Crl mice [2] = tested on: C57BL/6Crl mice; set-up: method as in Zagzoog et al., 2024; conditions: THC, ref Zagzoog et al., 2024, cited from earlier work
[3] = ref Zagzoog et al., 2024, cited from earlier work
C57BL/6Crl mice [4] = experiment: Open field test (OFT): locomotion and anxiety-like behaviour; assay type: in vivo; conditions: for OFT time in the center: compared to the vehicle
Protocol: Catalepsy was assessed in the ring holding assay; mice were positioned with their forepaws grasping onto a 0.5 cm thick ring clamp elevated 5 cm above the testing surface. The duration of time while the ring was held was recorded in seconds, with each trial terminated if the mouse’s forepaw released from the bar, upon turning of the head or body, or after 60 s of immobility. Catalepsy was evaluated three times consecutively, and the average time spent holding the bar was reported as a percent of the maximum possible effect (% MPE, up to 60 s). Internal body temperature was measured via a rectal thermometer. Nociception was determined by assessing tail-flick latency, where mice were restrained with their tails placed ∼1 cm into 52 °C ± 2 °C water. The time (sec) until the tail was removed was measured, with observations ending at 20 s and represented as a % MPE. Locomotion and anxiety-like behaviour were assessed in the OFT. Mice were placed in an open space (90 cm × 90 cm) and recorded for 5 min. Total distance travelled (cm), velocity (cm/sec), time in the centre quadrant (sec), and central quadrant entries were measured with EthoVision XT (Noldus Information Technology Inc., Leesburg, VA).
In Phase I (Part B), after determining the timepoint at which blood CBG concentrations were highest for each respective route of administration, the timing for each measure in the tetrad was adjusted. An assessment was conducted in a new cohort consisting of both male and female mice (n = 4 per sex per route) receiving a dose of 10 mg/kg of CBG via i.v., i.p., or p.o. routes. For those administered with i.v. CBG, the timing was: catalepsy at 5 min, body temperature at 15 min, tail-flick latency at 20 min, and OFT at 25 min post-injection. For i.p. CBG, measurements were taken at 20 min for catalepsy, 25 min for body temperature, 30 min for tail-flick latency, and 35 min for OFT post-injection. For p.o. CBG, data collection was scheduled as follows: catalepsy at 170 min, body temperature at 175 min, tail-flick latency at 180 min, and OFT at 185 min post-injection.

C57BL/6Crl mice [5] = tested on: C57BL/6Crl mice; set-up: method as in Zagzoog et al., 2024; conditions: THC, ref Zagzoog et al., 2024, cited from earlier work; remark: listed apart in the source
C57BL/6Crl mice [6] = tested on: C57BL/6Crl mice; set-up: method as in Zagzoog et al., 2024; conditions: THC, ref Zagzoog et al., 2024, cited from earlier work; remark: listed apart in the source

## CCCCCc1cc(O)c2c(c1)OC(C)(C)[C@@H]1CCC(C)=C[C@@H]21 [THC, Δ^9-Tetrahydrocannabinol]
[1]
  mean blood concentration: 526 ng/mL
C57BL/6Crl mice [2]; both sexes
  ED50 body temperature: 7.8 mg/kg
C57BL/6Crl mice [2]; females
  ED50 body temperature: 7.3 mg/kg
C57BL/6Crl mice [2]; males
  ED50 body temperature: 8.3 mg/kg
[3]; 10 mg/kg THC i.p.
  Cmax: 377 ng/mL
[3]; THC i.v., males
  C at 10 min (blood concentration 10 min post-administration): 1,290 ng/mL
[3]; THC p.o.
  Cmax: 149.5 ng/mL
[3]; THC
  p.o. Cmax as percent of i.p. Cmax: 40%
C57BL/6Crl mice [4]; 10 mg/kg i.p., compared to vehicle
  OFT entries to the center: entered the center fewer times than their vehicle-treated counterparts
C57BL/6Crl mice [4]; 10 mg/kg i.v., 25 min post-administration, male and female mice
  OFT velocity: reduced velocity compared to vehicle treatment
C57BL/6Crl mice [4]; 10 mg/kg i.v.
  OFT time in the center: Time in the center was reduced
C57BL/6Crl mice [4]; 10 mg/kg i.v., compared to vehicle
  OFT entries to the center: entered the center fewer times than their vehicle-treated counterparts
C57BL/6Crl mice [4]; 10 mg/kg p.o.
  OFT entries to the center: entered the center of the OFT fewer times than vehicle oral gavage mice
  OFT time in the center: Time in the center was reduced
C57BL/6Crl mice [5]; both sexes
  ED50 tail-flick latency: 4.1 mg/kg
C57BL/6Crl mice [5]; females
  ED50 tail-flick latency: 3.6 mg/kg
C57BL/6Crl mice [5]; males
  ED50 tail-flick latency: 4.9 mg/kg
C57BL/6Crl mice [6]; both sexes
  ED50 catalepsy: 6.9 mg/kg
C57BL/6Crl mice [6]; females
  ED50 catalepsy: 6.0 mg/kg
C57BL/6Crl mice [6]; males
  ED50 catalepsy: 8.6 mg/kg
